Data reported in patent US12686674B2, “Crystal form of compound represented by formula I, and preparation therefor and application thereof” (Shanghai Zhimeng Biopharma, Inc., priority 2021, dated 2026).

Assay: Solid-state stability, placed open one and two weeks (HPLC purity, XRPD)
Format: physicochemical
Experimental: Purity tests (HPLC) and crystal form detection (XRPD) were performed on starting samples, samples stored for one week and two weeks.

Purity(Area %) (1 week, 25° C./60% RH, open): 99.08 Area %
Purity(Area %) (1 week, 40° C./75% RH, open): 99.07 Area %
Purity(Area %) (1 week, 60° C., open): 99.09 Area %
change in Crystal form (XRPD) (1 week, 25° C./60% RH, 40° C./75% RH, 60° C.): Unchanged
Purity(Area %) (2 week, 25° C./60% RH, open): 99.12 Area %
Purity(Area %) (2 week, 40° C./75% RH, open): 99.14 Area %
Purity(Area %) (2 week, 60° C., open): 99.13 Area %
change in Crystal form (XRPD) (2 week, 25° C./60% RH, 40° C./75% RH, 60° C.): Unchanged
Purity(Area %) (Starting sample): 99.12 Area %
Structure (SMILES): O=C1CO[C@H](c2cn(-c3ccc(Br)cc3)nc2-c2ccc(F)cc2)N1CCc1ccc2[nH]c(=O)[nH]c2c1 [Crystal form A]
